Measurements from patent publication US8063214B2, “Polymorphic forms of tadalafil” (Dr. Reddy's Laboratories Limited, priority 2004, dated 2011).

What was measured:
Type in all cases: physicochemical
[1] = Particle size distribution by MASTERSIZER 2000 laser light scattering
Description: The particle size distribution plots of the drawings were obtained using a MASTERSIZER™ 2000 laser light scattering instrument sold by Malvern Instruments Ltd. of Malvern, Worcestershire, United Kingdom. In the plots, values in the vertical axis represent a volume percentage of particles and the horizontal axis is a logarithmic scale of particle sizes, in μm units.

[2] = Bulk density and tapped bulk density, Test Method 616 of United States Pharmacopeia 24; settings: for tapped bulk density: after tapping
[3] = Storage of polymorphic forms under ambient conditions, form checked by XRPD; settings: for polymorphic form after storage (XRPD pattern): ambient conditions; for polymorphic form stability upon storage: storage at ambient temperatures
Description: The various forms of tadalafil are characterized by their XRPD patterns, which differ between polymorpic forms. All XRPD results reported herein were obtained using Cu Kα radiation, having the wavelength 1.541 Å. The XRPD patterns of the figures have a vertical axis that is intensity units, and a horizontal axis that is degrees 2θ.

| diameters of 10 volume percent of the particles [1] | diameters of 50 volume percent of the particles [1] | diameters of 90 volume percent of the particles [1] | bulk density [2] [g/mL] | tapped bulk density [2] [g/mL] | polymorphic form stability upon storage ([3]; listed as mixtures of Form A and Form B) | polymorphic form stability upon storage [3] | Structure (SMILES) | polymorphic form after storage (XRPD pattern) ([3]; sealed polyethylene bag, 3 to 4 days) | polymorphic form after storage (XRPD pattern) ([3]; sealed in a polyethylene bag, 40 hours) |
| --- | --- | --- | --- | --- | --- | --- | --- | --- | --- |
| less than 31 μm | less than 104 μm | less than 321 μm | 0.344 | 0.666 | – | – | CN1CC(=O)N2[C@H](c3ccc4c(c3)OCO4)c3[nH]c4ccccc4c3C[C@@H]2C1=O [Example 1, tadalafil] | – | – |
| less than 9.9 μm | less than 40 μm | less than 148 μm | 0.181 | 0.434 | – | – | CN1CC(=O)N2[C@H](c3ccc4c(c3)OCO4)c3[nH]c4ccccc4c3C[C@@H]2C1=O [Example 11, tadalafil] | – | – |
| less than 58 μm | less than 193 μm | less than 428 μm | 0.435 | 0.626 | – | – | CN1CC(=O)N2[C@H](c3ccc4c(c3)OCO4)c3[nH]c4ccccc4c3C[C@@H]2C1=O [Example 15, tadalafil] | – | – |
| – | – | – | – | – | will convert to only Form A | – | CN1CC(=O)N2[C@H](c3ccc4c(c3)OCO4)c3[nH]c4ccccc4c3C[C@@H]2C1=O [Example 21, tadalafil] | conversion of the tadalafil Form B into Form A | – |
| – | – | – | – | – | – | spontaneously converts to Form A | CN1CC(=O)N2[C@H](c3ccc4c(c3)OCO4)c3[nH]c4ccccc4c3C[C@@H]2C1=O [Tadalafil Form B, tadalafil] | – | conversion of the tadalafil Form B into Form A |
